Data set [1] is described as follows: logD by shake flask method (octanol / PBS pH 7.4, HPLC). As to conditions: octanol / PBS pH 7.4, shake flask. The format is physicochemical. The procedure, abridged:
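LogD obtained by HPLC measurement of how the compound distributes between PBS (pH 7.4) and octanol in a shake-flask experiment.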

The nature of data set [2]: Caco-2 permeability assay (CacoReady kit). The conditions noted are these: human, Caco-2, Caco-2 barrier, CacoReady kit; above 1×10^−6 cm/s classified as permeable. The format is in vitro ADME. The procedure, abridged: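 Compounds are tested on pre-formed Caco-2 barriers supplied as a ready-to-use kit, following the kit protocol, and the Papp value is derived to estimate intestinal absorption.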

Data set [3] deals with T1, recombinant human transglutaminase 2 (Homo sapiens, UniProt P21980).
T1 construct: purchased Zedira T022
T1 sequence (P21980 1-687): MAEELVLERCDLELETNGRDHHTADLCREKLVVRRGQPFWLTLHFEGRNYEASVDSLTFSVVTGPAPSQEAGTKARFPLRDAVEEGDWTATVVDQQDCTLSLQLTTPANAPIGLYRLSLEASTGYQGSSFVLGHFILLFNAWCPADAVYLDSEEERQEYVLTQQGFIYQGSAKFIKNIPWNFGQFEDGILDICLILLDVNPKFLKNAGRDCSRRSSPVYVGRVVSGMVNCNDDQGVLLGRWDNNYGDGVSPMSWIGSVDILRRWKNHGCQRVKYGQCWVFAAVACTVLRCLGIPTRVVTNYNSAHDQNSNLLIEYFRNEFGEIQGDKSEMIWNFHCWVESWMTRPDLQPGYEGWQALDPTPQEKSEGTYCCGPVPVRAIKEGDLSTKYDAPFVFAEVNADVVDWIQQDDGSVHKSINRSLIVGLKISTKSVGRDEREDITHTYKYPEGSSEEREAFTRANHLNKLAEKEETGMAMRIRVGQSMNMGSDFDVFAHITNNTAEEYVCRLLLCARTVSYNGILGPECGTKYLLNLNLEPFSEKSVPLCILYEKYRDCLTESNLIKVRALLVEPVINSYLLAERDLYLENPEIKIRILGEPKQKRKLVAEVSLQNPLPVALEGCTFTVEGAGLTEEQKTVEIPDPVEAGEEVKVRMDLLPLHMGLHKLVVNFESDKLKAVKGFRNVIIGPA
Put plainly: Transglutaminase assay (DCC-assay): incorporation of dansylcadaverine into dimethylcasein. The format is biochemical. As to conditions: recombinant human TG2 10 nM; dansylcadaverine incorporation into dimethylcasein; read-out: IC50 TG2. The procedure, abridged:
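IC50 is the inhibitor level that blocks 50% of initial activity. Activity is the fluorescence slope (λex 330, λem 500 nm) between 20 and 30 min of a 37 °C run, relative to a 2% DMSO control. The enzyme is recombinant human tissue transglutaminase, 10 nM final, tested against a 1:2 inhibitor dilution series in a pH 8.0 mix with 10 mM CaCl2, 10 mM glutathione, 16.7 µM dansylcadaverine and 4 µM N,N-dimethylcasein.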

For `CNC(=O)C(=O)CC[C@H](NC(=O)c1sc(C(F)(F)F)nc1C)C(=O)Nc1cccn(CC(=O)N[C@@H]2C[C@@H]3CC[C@H]2C3)c1=O` [II-154, (S)-N1-(1-(2-((1S,2R,4R)-bicyclo[2.2.1]heptan-2-ylamino)-2-oxoethyl)-2-oxo-1,2-dihydropyridin-3-yl)-N6-methyl-2-(4-methyl-2-(trifluoromethyl)thiazole-5-carboxamido)-5-oxohexanediamide], the logD in data set [1] was in the range of 1 to 3. In data set [2], this compound came in with an apparent permeability (Papp) of 1 to 10 ×10⁻⁶ cm/s. Besides, the IC50 in data set [3] was 40 to 400 nM.
The corresponding values for `CNC(=O)C(=O)CC[C@H](NC(=O)c1cc(Cl)sc1Cl)C(=O)Nc1cccn(CC(=O)N[C@@H]2C[C@@H]3CC[C@H]2C3)c1=O` [II-155, (S)-N1-(1-(2-((1S,2R,4R)-bicyclo[2.2.1]heptan-2-ylamino)-2-oxoethyl)-2-oxo-1,2-dihydropyridin-3-yl)-2-(2,5-dichlorothiophene-3-carboxamido)-N6-methyl-5-oxohexanediamide] are 1 to 3, 1 to 10 ×10⁻⁶ cm/s and under 40 nM.
The like results for `CNC(=O)C(=O)CC[C@H](NC(=O)c1snnc1C)C(=O)Nc1cccn(CC(=O)N[C@@H]2C[C@@H]3CC[C@H]2C3)c1=O` [II-156, (S)-N1-(1-(2-((1S,2R,4R)-bicyclo[2.2.1]heptan-2-ylamino)-2-oxoethyl)-2-oxo-1,2-dihydropyridin-3-yl)-N6-methyl-2-(4-methyl-1,2,3-thiadiazole-5-carboxamido)-5-oxohexanediamide] were, in that order, under 1, under 1 ×10⁻⁶ cm/s and 40 to 400 nM.
Compound `CNC(=O)C(=O)CC[C@H](NC(=O)c1cnnn1C)C(=O)Nc1cccn(CC(=O)N[C@@H]2C[C@@H]3CC[C@H]2C3)c1=O` [II-157, (S)-N1-(1-(2-((1S,2R,4R)-bicyclo[2.2.1]heptan-2-ylamino)-2-oxoethyl)-2-oxo-1,2-dihydropyridin-3-yl)-N6-methyl-2-(1-methyl-1H-1,2,3-triazole-5-carboxamido)-5-oxohexanediamide] yielded a logD in data set [1] of under 1. Also, the Papp in data set [2] was under 1 ×10⁻⁶ cm/s. The 50% inhibitory concentration (IC50) in data set [3] lay in the range of 40 to 400 nM.
Consider `CNC(=O)C(=O)CC[C@H](NC(=O)c1ccnn1C)C(=O)Nc1cccn(CC(=O)N[C@@H]2C[C@@H]3CC[C@H]2C3)c1=O` [II-158, (S)-N1-(1-(2-((1S,2R,4R)-bicyclo[2.2.1]heptan-2-ylamino)-2-oxoethyl)-2-oxo-1,2-dihydropyridin-3-yl)-N6-methyl-2-(1-methyl-1H-pyrazole-5-carboxamido)-5-oxohexanediamide], for which the pH-dependent lipophilicity (logD) in data set [1] was under 1. In addition, the Papp in data set [2] was under 1 ×10⁻⁶ cm/s. In addition, in data set [3], the IC50 is 40 to 400 nM.
The like results for `CNC(=O)C(=O)CC[C@H](NC(=O)c1sc(C(F)(F)F)nc1C)C(=O)Nc1cccn(CC(=O)N[C@H]2C[C@H]3CC[C@]2(C)C3(C)C)c1=O` [II-159, (S)-N1-methyl-5-(4-methyl-2-(trifluoromethyl)thiazole-5-carboxamido)-2-oxo-N6-(2-oxo-1-(2-oxo-2-((1R,2S,4R)-1,7,7-trimethylbicyclo[2.2.1]heptan-2-ylamino)ethyl)-1,2-dihydropyridin-3-yl)hexanediamide] were, in that order, 1 to 3, 1 to 10 ×10⁻⁶ cm/s and 40 to 400 nM.
Take `CNC(=O)C(=O)CC[C@H](NC(=O)c1cc(Cl)sc1Cl)C(=O)Nc1cccn(CC(=O)N[C@H]2C[C@H]3CC[C@]2(C)C3(C)C)c1=O` [II-160, (S)-2-(2,5-dichlorothiophene-3-carboxamido)-N6-methyl-5-oxo-N1-(2-oxo-1-(2-oxo-2-((1R,2S,4R)-1,7,7-trimethylbicyclo[2.2.1]heptan-2-ylamino)ethyl)-1,2-dihydropyridin-3-yl)hexanediamide]: the logD in data set [1] lay within 1 to 3. Besides, in data set [2], the Papp lay in the range of 1 to 10 ×10⁻⁶ cm/s. For the same compound, the IC50 in data set [3] lay within 40 to 400 nM.
Turning to `CNC(=O)C(=O)CC[C@H](NC(=O)c1snnc1C)C(=O)Nc1cccn(CC(=O)N[C@H]2C[C@H]3CC[C@]2(C)C3(C)C)c1=O` [II-161, (S)-N1-methyl-5-(4-methyl-1,2,3-thiadiazole-5-carboxamido)-2-oxo-N6-(2-oxo-1-(2-oxo-2-((1R,2S,4R)-1,7,7-trimethylbicyclo[2.2.1]heptan-2-ylamino)ethyl)-1,2-dihydropyridin-3-yl)hexanediamide], the log distribution coefficient (logD) in data set [1] is under 1. Besides, in data set [2], the Papp is under 1 ×10⁻⁶ cm/s. Further, the IC50 in data set [3] lay within 40 to 400 nM.
`CNC(=O)C(=O)CC[C@H](NC(=O)c1cnnn1C)C(=O)Nc1cccn(CC(=O)N[C@H]2C[C@H]3CC[C@]2(C)C3(C)C)c1=O` [II-162, (S)-N1-methyl-5-(1-methyl-1H-1,2,3-triazole-5-carboxamido)-2-oxo-N6-(2-oxo-1-(2-oxo-2-((1R,2S,4R)-1,7,7-trimethylbicyclo[2.2.1]heptan-2-ylamino)ethyl)-1,2-dihydropyridin-3-yl)hexanediamide] had a pH-dependent lipophilicity (logD) in data set [1] of under 1. Moreover, the Papp in data set [2] is under 1 ×10⁻⁶ cm/s. Besides, in data set [3], the IC50 is 40 to 400 nM.
With `CNC(=O)C(=O)CC[C@H](NC(=O)c1ccnn1C)C(=O)Nc1cccn(CC(=O)N[C@H]2C[C@H]3CC[C@]2(C)C3(C)C)c1=O` [II-163, (S)-N1-methyl-5-(1-methyl-1H-pyrazole-5-carboxamido)-2-oxo-N6-(2-oxo-1-(2-oxo-2-((1R,2S,4R)-1,7,7-trimethylbicyclo[2.2.1]heptan-2-ylamino)ethyl)-1,2-dihydropyridin-3-yl)hexanediamide], the log distribution coefficient (logD) in data set [1] was under 1. This compound yielded a Papp in data set [2] of under 1 ×10⁻⁶ cm/s. Besides, in data set [3], the IC50 was in the range of 40 to 400 nM.
Consider `CNC(=O)C(=O)CC[C@H](NC(=O)c1c[nH]cc1C(C)(C)C)C(=O)Nc1cccn(CCC23CC4CC(CC(C4)C2)C3)c1=O` [II-164], for which the logD in data set [1] was in the range of 3 to 5. Also, the Papp in data set [2] fell in the range of 1 to 10 ×10⁻⁶ cm/s. The half-inhibitory concentration (IC50) in data set [3] was in the range of 400 to 2500 nM.
The corresponding values for `CNC(=O)C(=O)CC[C@H](NC(=O)c1cc(C#N)cn1C)C(=O)Nc1cccn(CCCC23CC4CC(CC(C4)C2)C3)c1=O` [II-165] are 3 to 5, 1 to 10 ×10⁻⁶ cm/s and 400 to 2500 nM.
The like results for `CNC(=O)C(=O)CC[C@H](NC(=O)c1ncc(OC)o1)C(=O)Nc1cccn(CCC(=O)NC2C3CC4CC(C3)CC2C4)c1=O` (stereo partly drawn) [II-166, (S)-N1-(1-(3-(2-adamantylamino)-3-oxopropyl)-2-oxo-1,2-dihydropyridin-3-yl)-2-(5-methoxyoxazole-2-carboxamido)-N6-methyl-5-oxohexanediamide] were, in that order, 1 to 3, 1 to 10 ×10⁻⁶ cm/s and 400 to 2500 nM.
The like results for `CNC(=O)C(=O)CC[C@H](NC(=O)c1oc2ccccc2c1C)C(=O)Nc1cccn(CC(=O)NC23CC(C2)C3)c1=O` [II-167, (S)-N1-(1-(2-(bicyclo[1.1.1]pentan-1-ylamino)-2-oxoethyl)-2-oxo-1,2-dihydropyridin-3-yl)-N6-methyl-2-(3-methylbenzofuran-2-carboxamido)-5-oxohexanediamide] were, in that order, under 1, 1 to 10 ×10⁻⁶ cm/s and under 40 nM.
`CNC(=O)C(=O)CC[C@H](NC(=O)c1coc(C(C)=O)n1)C(=O)Nc1cccn(CC(=O)NC23CC(C2)C3)c1=O` [II-168, (S)-2-(2-acetyloxazole-4-carboxamido)-N1-(1-(2-(bicyclo[1.1.1]pentan-1-ylamino)-2-oxoethyl)-2-oxo-1,2-dihydropyridin-3-yl)-N6-methyl-5-oxohexanediamide] came in with a logD in data set [1] of under 1. The compound further yielded an apparent permeability coefficient (Papp) in data set [2] of under 1 ×10⁻⁶ cm/s. Moreover, the IC50 in data set [3] was 40 to 400 nM.
In turn, `CNC(=O)C(=O)CC[C@H](NC(=O)c1oc2ccccc2c1C)C(=O)Nc1cccn(CC(=O)NC23CCC(C2)C3)c1=O` [II-169, (S)-N1-(1-(2-(bicyclo[2.1.1]hexan-1-ylamino)-2-oxoethyl)-2-oxo-1,2-dihydropyridin-3-yl)-N6-methyl-2-(3-methylbenzofuran-2-carboxamido)-5-oxohexanediamide] came in with a logD in data set [1] of under 1. In addition, the apparent permeability (Papp) in data set [2] lay in the range of 1 to 10 ×10⁻⁶ cm/s. Moreover, the IC50 in data set [3] is under 40 nM.
The corresponding values for `CNC(=O)C(=O)CC[C@H](NC(=O)c1cnc(C(C)C)o1)C(=O)Nc1cccn(CC(=O)NC23CCC(C2)C3)c1=O` [II-170, (S)-N1-(1-(2-(bicyclo[2.1.1]hexan-1-ylamino)-2-oxoethyl)-2-oxo-1,2-dihydropyridin-3-yl)-2-(2-isopropyloxazole-5-carboxamido)-N6-methyl-5-oxohexanediamide] are under 1, 1 to 10 ×10⁻⁶ cm/s and 40 to 400 nM.
